One may read the IC50 as the midpoint of a concentration-inhibition curve.

Each structure is given as a SMILES string.

The test addresses human TRPA1 (Homo sapiens (Human), UniProt O75762). In words: In vitro inhibition of human TRPA1, whole cell patch configuration. The test is classed as cell-based. The conditions noted are these: current activation 10 μM AITC, tested concentrations 320 pM to 3.2 μM, read-out: hTRPA1 IC50. Summed up: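 Whole-cell patch clamp, bath 150 mM NaCl, 10 mM HEPES, 1 mM EGTA, 3 mM MgCl2, pH 7.4 (sometimes 2 mM CaCl2, 1 mM MgCl2). Currents recorded continuously at −60 mV or by 400 ms ramps from −40 mV holding every 4 s; inward/outward currents taken at −80/80 mV, with controlled-temperature focal perfusion.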

human TRPA1, sequence (O75762 whole entry, the tested form may be a part): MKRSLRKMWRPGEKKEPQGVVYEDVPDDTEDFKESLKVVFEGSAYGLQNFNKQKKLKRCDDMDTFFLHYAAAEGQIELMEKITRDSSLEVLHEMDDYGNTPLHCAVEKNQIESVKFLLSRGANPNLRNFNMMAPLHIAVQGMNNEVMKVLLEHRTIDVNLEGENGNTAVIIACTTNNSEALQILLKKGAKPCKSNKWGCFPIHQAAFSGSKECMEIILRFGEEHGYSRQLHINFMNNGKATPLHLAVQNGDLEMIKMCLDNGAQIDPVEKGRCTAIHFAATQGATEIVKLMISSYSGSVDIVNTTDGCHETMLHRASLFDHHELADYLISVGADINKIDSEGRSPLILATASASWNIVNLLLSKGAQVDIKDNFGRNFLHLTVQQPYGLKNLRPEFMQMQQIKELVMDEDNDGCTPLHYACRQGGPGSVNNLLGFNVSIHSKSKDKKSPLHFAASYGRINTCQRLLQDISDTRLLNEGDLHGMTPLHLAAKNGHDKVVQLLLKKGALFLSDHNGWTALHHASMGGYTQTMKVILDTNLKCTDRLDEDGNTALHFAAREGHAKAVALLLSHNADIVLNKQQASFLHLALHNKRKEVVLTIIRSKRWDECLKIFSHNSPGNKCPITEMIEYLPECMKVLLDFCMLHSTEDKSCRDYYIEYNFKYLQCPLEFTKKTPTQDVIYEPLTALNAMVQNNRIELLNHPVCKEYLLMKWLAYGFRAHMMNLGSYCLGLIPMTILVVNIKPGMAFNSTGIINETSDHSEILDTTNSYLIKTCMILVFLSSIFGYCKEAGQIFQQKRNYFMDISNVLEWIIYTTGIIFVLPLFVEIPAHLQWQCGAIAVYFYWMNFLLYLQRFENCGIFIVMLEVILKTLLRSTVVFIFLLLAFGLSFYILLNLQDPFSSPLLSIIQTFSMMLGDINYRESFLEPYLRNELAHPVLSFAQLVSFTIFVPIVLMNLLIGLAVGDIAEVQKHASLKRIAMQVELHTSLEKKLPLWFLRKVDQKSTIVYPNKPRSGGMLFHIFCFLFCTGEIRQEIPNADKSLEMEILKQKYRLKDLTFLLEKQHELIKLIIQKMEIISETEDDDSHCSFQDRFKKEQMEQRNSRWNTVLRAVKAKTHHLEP

As for `C[C@@H](C(=O)Nc1ccnc(-c2cnc(N3CCC[C@H]3C(F)(F)F)nc2)n1)n1cnc2c1c(=O)n(CC#N)c(=O)n2C` [Compound 54, (S)-2-(1-(cyanomethyl)-3-methyl-2,6-dioxo-2,3-dihydro-1H-purin-7(6H)-yl)-N-(2′-((S)-2-(trifluoromethyl)pyrrolidin-1-yl)-2,5′-bipyrimidin-4-yl)propanamide], the half-maximal inhibitory concentration (IC50) is 7 nM.
With `Cn1c(=O)n(Cc2ccccn2)c(=O)c2c1ncn2CC(=O)Nc1cccc(-c2ccc(F)c(F)c2)n1` [Compound 187, N-(6-(3,4-difluorophenyl)pyridin-2-yl)-2-(3-methyl-2,6-dioxo-1-(pyridin-2-ylmethyl)-2,3-dihydro-1H-purin-7(6H)-yl)acetamide], the half-inhibitory concentration (IC50) stood at 74 nM.
`CCC(=O)Cn1c(=O)c2c(ncn2[C@@H](C)C(=O)Nc2cncc(-c3ccc(N4CC5C(C4)C5(F)F)nc3)n2)n(C)c1=O` (stereo partly drawn) [Compound 84, (2S)—N-(6-(6-(6,6-difluoro-3-azabicyclo[3.1.0]hexan-3-yl)pyridin-3-yl)pyrazin-2-yl)-2-(3-methyl-2,6-dioxo-1-(2-oxobutyl)-2,3-dihydro-1H-purin-7(6H)-yl)propanamide]: the IC50 stood at 4 nM.
For the compound `Cc1nc(Cn2c(=O)c3c(ncn3[C@@H](C)C(=O)Nc3cccc(-c4cnc(C(F)(F)F)nc4)n3)n(C)c2=O)no1` [Compound 171, (S)-2-(3-methyl-1-((5-methyl-1,2,4-oxadiazol-3-yl)methyl)-2,6-dioxo-2,3-dihydro-1H-purin-7(6H)-yl)-N-(6-(2-(trifluoromethyl)pyrimidin-5-yl)pyridin-2-yl)propanamide], the IC50 turned out to be 23 nM.
In the case of `CC#CCn1c(=O)c2c(ncn2[C@@H](C)C(=O)Nc2csc(-c3cnc(N4CCC[C@@H]4C(F)(F)F)nc3)n2)n(C)c1=O` [Compound 157, (S)-2-(1-(but-2-ynyl)-3-methyl-2,6-dioxo-2,3-dihydro-1H-purin-7(6H)-yl)-N-(2-(2-((R)-2-(trifluoromethyl)pyrrolidin-1-yl)pyrimidin-5-yl)thiazol-4-yl)propanamide], the concentration for half-maximal inhibition (IC50) is 1 nM.
The result for `Cc1cc(Cn2c(=O)c3c(ncn3CC(=O)Nc3csc(-c4cnc(C(F)(F)F)c(C)c4)n3)n(C)c2=O)no1` [Compound 217, 2-(3-methyl-1-((5-methylisoxazol-3-yl)methyl)-2,6-dioxo-2,3-dihydro-1H-purin-7(6H)-yl)-N-(2-(5-methyl-6-(trifluoromethyl)pyridin-3-yl)thiazol-4-yl)acetamide] reads 3 nM.
In the case of `Cc1cc(Cn2c(=O)c3c(ncn3CC(=O)Nc3cccc(-c4cnc(C(F)(F)F)c(C)c4)n3)n(C)c2=O)no1` [Compound 221, 2-(3-methyl-1-((5-methylisoxazol-3-yl)methyl)-2,6-dioxo-2,3-dihydro-1H-purin-7(6H)-yl)-N-(5′-methyl-6′-(trifluoromethyl)-[2,3′-bipyridin]-6-yl)acetamide], the half-inhibitory concentration (IC50) is 5 nM.
Turning to `CCOc1ncc(-c2cccc(NC(=O)[C@H](C)n3cnc4c3c(=O)n(Cc3cc(C)on3)c(=O)n4C)n2)cc1C(F)(F)F` [Compound 122, (S)—N-(6′-ethoxy-5′-(trifluoromethyl)-[2,3′-bipyridin]-6-yl)-2-(3-methyl-1-((5-methylisoxazol-3-yl)methyl)-2,6-dioxo-2,3-dihydro-1H-purin-7(6H)-yl)propanamide], the IC50 was 1 nM.
Regarding `Cc1cc(Cn2c(=O)c3c(ncn3[C@@H](C)C(=O)Nc3cncc(-c4cnc(N5CCC[C@H]5C(F)(F)F)nc4)n3)n(C)c2=O)no1` [Compound 96, (S)-2-(3-methyl-1-((5-methylisoxazol-3-yl)methyl)-2,6-dioxo-2,3-dihydro-1H-purin-7(6H)-yl)-N-(6-(2-((S)-2-(trifluoromethyl)pyrrolidin-1-yl)pyrimidin-5-yl)pyrazin-2-yl)propanamide], the IC50 was 2 nM.
As for `CC#CCn1c(=O)c2c(ncn2[C@@H](C)C(=O)Nc2cccc(-c3cnc(N4CC5C(C4)C5(F)F)nc3)n2)n(C)c1=O` (stereo partly drawn) [Compound 169, (2S)-2-(1-(but-2-yn-1-yl)-3-methyl-2,6-dioxo-2,3-dihydro-1H-purin-7(6H)-yl)-N-(6-(2-(6,6-difluoro-3-azabicyclo[3.1.0]hexan-3-yl)pyrimidin-5-yl)pyridin-2-yl)propanamide], the half-inhibitory concentration (IC50) stood at 10 nM.
Turning to `C[C@@H](C(=O)Nc1ccnc(-c2cnc(N3CC4C(C3)C4(F)F)nc2)n1)n1cnc2c1c(=O)n(CC#N)c(=O)n2C` (stereo partly drawn) [Compound 67, (2S)-2-(1-(cyanomethyl)-3-methyl-2,6-dioxo-2,3-dihydro-1H-purin-7(6H)-yl)-N-(2′-(6,6-difluoro-3-azabicyclo[3.1.0]hexan-3-yl)-[2,5′-bipyrimidin]-4-yl)propanamide], the IC50 was 7 nM.
Under `CCC(=O)Cn1c(=O)c2c(ncn2CC(=O)Nc2cncc(-c3cnc(C)c(C(F)(F)F)c3)n2)n(C)c1=O` [Compound 243, 2-(3-methyl-2,6-dioxo-1-(2-oxobutyl)-2,3-dihydro-1H-purin-7(6H)-yl)-N-(6-(6-methyl-5-(trifluoromethyl)pyridin-3-yl)pyrazin-2-yl)acetamide] stands 6 nM; under `CC(=O)Cn1c(=O)c2c(nc(C)n2CC(=O)Nc2cccc(-c3cnc(N4CCC[C@H]4C(F)(F)F)nc3)n2)n(C)c1=O` [Compound 195], 3 nM; under `Cc1cc(Cn2c(=O)c3c(ncn3[C@@H](C)C(=O)Nc3cncc(-c4cnc(C(F)(F)F)c(C)c4)n3)n(C)c2=O)no1` [Compound 130, (S)-2-(3-methyl-1-((5-methylisoxazol-3-yl)methyl)-2,6-dioxo-2,3-dihydro-1H-purin-7(6H)-yl)-N-(6-(5-methyl-6-(trifluoromethyl)pyridin-3-yl)pyrazin-2-yl)propanamide], 8 nM.
Consider `Cc1cc(Cn2c(=O)c3c(ncn3[C@@H](C)C(=O)Nc3cccc(-c4cnc(Cl)c(C(F)(F)F)c4)n3)n(C)c2=O)no1` [Compound 123, (S)—N-(6′-chloro-5′-(trifluoromethyl)-[2,3′-bipyridin]-6-yl)-2-(3-methyl-1-((5-methylisoxazol-3-yl)methyl)-2,6-dioxo-2,3-dihydro-1H-purin-7(6H)-yl)propanamide], for which the IC50 came out at 2 nM.
For `C[C@@H](C(=O)Nc1csc(-c2cnc(N3CCC[C@@H]3C(F)(F)F)nc2)n1)n1cnc2c1c(=O)n(CC#N)c(=O)n2C` [Compound 50], the 50% inhibitory concentration (IC50) was determined as 4 nM.
`Cc1nc(Cn2c(=O)c3c(ncn3[C@@H](C)C(=O)Nc3csc(-c4cnc(C)c(C(F)(F)F)c4)n3)n(C)c2=O)no1` [Compound 163, (S)-2-(3-methyl-1-((5-methyl-1,2,4-oxadiazol-3-yl)methyl)-2,6-dioxo-2,3-dihydro-1H-purin-7(6H)-yl)-N-(2-(6-methyl-5-(trifluoromethyl)pyridin-3-yl)thiazol-4-yl)propanamide]: the half-inhibitory concentration (IC50) was found to be 2 nM.
Under `CC#CCn1c(=O)c2c(ncn2[C@@H](C)C(=O)Nc2ccnc(-c3cnc(N4CC5CC5C4)nc3)n2)n(C)c1=O` (stereo partly drawn) [Compound 173, (2S)—N-(2′-(3-azabicyclo[3.1.0]hexan-3-yl)-[2,5′-bipyrimidin]-4-yl)-2-(1-(but-2-yn-1-yl)-3-methyl-2,6-dioxo-2,3-dihydro-1H-purin-7(6H)-yl)propanamide] stands 6 nM; under `CC(=O)Cn1c(=O)c2c(ncn2CC(=O)Nc2cccc(-c3cnc(N4CCC[C@H]4C(F)(F)F)nc3)n2)n(C)c1=O` [Compound 183, (S)-2-(3-methyl-2,6-dioxo-1-(2-oxopropyl)-1,2,3,6-tetrahydropurin-7-yl)-N-(6-(2-(2-(trifluoromethyl)pyrrolidin-1-yl)pyrimidin-5-yl)pyridin-2-yl)acetamide], 3 nM.
On to `COc1cc(NC(=O)Cn2cnc3c2c(=O)n(Cc2cc(C)on2)c(=O)n3C)nc(C(F)(F)F)c1` [Compound 204, N-(4-methoxy-6-(trifluoromethyl)pyridin-2-yl)-2-(3-methyl-1-((5-methylisoxazol-3-yl)methyl)-2,6-dioxo-2,3-dihydro-1H-purin-7(6H)-yl)acetamide], for which the IC50 is 3250 nM.
Under `CCC(=O)Cn1c(=O)c2c(ncn2[C@@H](C)C(=O)Nc2csc(-c3cnc(N(CC)CC)nc3)n2)n(C)c1=O` [Compound 38, (S)—N-(2-(2-(diethylamino)pyrimidin-5-yl)thiazol-4-yl)-2-(3-methyl-2,6-dioxo-1-(2-oxobutyl)-2,3-dihydro-1H-purin-7(6H)-yl)propanamide] stands 3 nM; under `Cc1noc(Cn2c(=O)c3c(ncn3CC(=O)Nc3csc(-c4cnc(C(F)(F)F)c(C)c4)n3)n(C)c2=O)n1` [Compound 250, 2-(3-methyl-1-((3-methyl-1,2,4-oxadiazol-5-yl)methyl)-2,6-dioxo-2,3-dihydro-1H-purin-7(6H)-yl)-N-(2-(5-methyl-6-(trifluoromethyl)pyridin-3-yl)thiazol-4-yl)acetamide], 6 nM; under `CC(=O)Cn1c(=O)c2c(ncn2[C@@H](C)C(=O)Nc2cncc(-c3cnc(C)c(C(F)(F)F)c3)n2)n(C)c1=O` [Compound 109, (S)-2-(3-methyl-2,6-dioxo-1-(2-oxopropyl)-2,3-dihydro-1H-purin-7(6H)-yl)-N-(6-(6-methyl-5-(trifluoromethyl)pyridin-3-yl)pyrazin-2-yl)propanamide], 8 nM.
As to `CC(=O)Cn1c(=O)c2c(ncn2[C@@H](C)C(=O)Nc2cncc(-c3ccc(C(F)(F)F)nc3)n2)n(C)c1=O` [Compound 3, (S)-2-(3-methyl-2,6-dioxo-1-(2-oxopropyl)-2,3-dihydro-1H-purin-7(6H)-yl)-N-(6-(6-(trifluoromethyl)pyridin-3-yl)pyrazin-2-yl)propanamide], the IC50 was 49 nM.
As to `CC(=O)Cn1c(=O)c2c(ncn2[C@@H](C)C(=O)Nc2ccnc(-c3cnc(C)c(C(F)(F)F)c3)n2)n(C)c1=O` [Compound 111], the IC50 is 3 nM.
For the compound `Cc1cc(Cn2c(=O)c3c(ncn3[C@@H](C)C(=O)Nc3cccc(-c4ccc(C(F)(F)F)cc4)n3)n(C)c2=O)no1` [Compound 23], the 50% inhibitory concentration (IC50) was found to be 5 nM.

The values above are taken from patent publication US10221177B2 (HYDRA BIOSCIENCES, INC., priority 2014, dated 2019).
